Experimental data published in ChEMBL document CHEMBL1143940, “Eupalinin A isolated from Eupatorium chinense L. induces autophagocytosis in human leukemia HL60 cells” (Bioorg Med Chem, 2008).
The source made the active and inactive calls. No cut-off for these calls is given here.

Key:
[1] = system: HL-60; test: Induction of autophagy in human HL60 cells at 4 uM in presence of PI3K inhibitor 3-methyladenine; format: functional, cell-based
[2] = system: HL-60; test: Effect on caspase 9 activity in human HL60 cells at 4 uM; format: functional, cell-based
[3] = system: HL-60; test: Induction of apoptosis in human HL60 cells assessed as decrease in Bax levels at 4 uM after 12 hrs; format: functional, cell-based
[4] = system: HL-60; test: Disruption of mitochondrial membrane potential in human HL60 cells at 4 uM after 12 hrs; format: functional, cell-based
[5] = system: HL-60; test: Cytotoxicity against human HL60 cells; format: functional, cell-based
[6] = system: HL-60; test: Induction of cell death in human HL60 cells assessed as formation of autophagosomes at 4 uM after 6 hrs; format: functional, cell-based
[7] = system: HL-60; test: Induction of DNA fragmentation in human HL60 cells at 4 uM; format: functional, cell-based; settings: TDE = time-dependent effect
[8] = system: HL-60; test: Increase in JNK protein level in human HL60 cells at 4 uM by Western blot; format: functional, cell-based
[9] = system: HL-60; test: Induction of apoptosis in human HL60 cells assessed as increase in phospho-Bcl2 at 4 uM after 12 hrs; format: functional, cell-based
[10] = biological target: RAC-alpha serine/threonine-protein kinase (Homo sapiens) (UniProt P31749); test: Increase in Akt phosphorylation in human HL60 cells at 4 uM after 48 hrs; format: cell-based; settings: HL-60
[11] = system: HL-60; test: Induction of apoptosis in human HL60 cells at 4 uM in presence of 100 uM caspase inhibitor ZVADFMK by Trypan blue exclusion test; format: functional, cell-based
[12] = system: HL-60; test: Induction of autophagy in human HL60 cells at 4 uM after 12 hrs by MDC staining; format: functional, cell-based
[13] = system: HL-60; test: Induction of apoptosis in human HL60 cells assessed as increase in phospho-Bcl-xl levels at 4 uM after 12 hrs; format: functional, cell-based
[14] = system: HL-60; test: Induction of nuclear condensation in human HL60 cells at 4 uM after 24 hrs by Hoechst33342 staining method; format: functional, cell-based
[15] = system: HL-60; test: Induction of apoptosis in human HL60 cells assessed as increase in phospho-Bad levels at 4 uM after 12 hrs; format: functional, cell-based
[16] = system: HL-60; test: Induction of autophagy in human HL60 cells assessed as increase in lipidated microtubule-associated-protein light chain 3 subunit II levels at 4 uM after 3 to 6 hrs; format: functional, cell-based
[17] = system: HL-60; test: Induction of autophagy in human HL60 cells at 4 uM in presence of PI3K inhibitor LY-294002; format: functional, cell-based
[18] = system: HL-60; test: Increase in p38 MAPK protein level in human HL60 cells at 4 uM by Western blot; format: functional, cell-based
[19] = system: HL-60; test: Effect on caspase 8 activity in human HL60 cells at 4 uM; format: functional, cell-based
[20] = system: HL-60; test: Effect on caspase 2 activity in human HL60 cells at 4 uM; format: functional, cell-based
[21] = system: HL-60; test: Effect on caspase 3 activity in human HL60 cells at 4 uM; format: functional, cell-based
[22] = system: HL-60; test: Increase in intracellular ROS level in human HL60 cells at 4 uM after 12 hrs; format: functional, cell-based

Chain of RAC-alpha serine/threonine-protein kinase (Homo sapiens) (P31749 whole entry): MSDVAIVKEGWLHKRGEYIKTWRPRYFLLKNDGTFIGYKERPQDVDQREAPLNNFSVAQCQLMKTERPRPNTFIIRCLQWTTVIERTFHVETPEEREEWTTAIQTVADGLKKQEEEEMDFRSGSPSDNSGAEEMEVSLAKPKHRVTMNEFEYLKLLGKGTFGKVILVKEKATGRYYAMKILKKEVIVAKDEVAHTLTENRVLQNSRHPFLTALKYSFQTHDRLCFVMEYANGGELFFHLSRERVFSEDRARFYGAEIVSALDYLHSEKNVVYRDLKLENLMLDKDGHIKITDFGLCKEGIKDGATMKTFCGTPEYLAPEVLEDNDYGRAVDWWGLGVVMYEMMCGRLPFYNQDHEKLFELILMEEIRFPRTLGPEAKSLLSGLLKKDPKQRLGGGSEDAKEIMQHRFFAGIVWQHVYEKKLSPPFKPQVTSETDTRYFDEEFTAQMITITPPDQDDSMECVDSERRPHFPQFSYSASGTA

Compound: C=C1C(=O)O[C@@H]2/C=C(/C)[C@@H](OC(C)=O)C[C@H]3O[C@]3(C)C[C@@H](OC(=O)/C(=C/C)CO)[C@@H]12 [EUPALININ A]
- Activity [1]: Active
- Activity [2]: Active
- Activity [3]: Active
- Activity [4]: Active
- IC50 [5]: 2400 nM
- Activity [6]: Active
- Activity [7]: tde
- Activity [8]: Active
- Activity [9]: Active
- Activity [10]: Active
- Activity [11]: inactive
- Activity [12]: Active
- Activity [13]: Active
- Activity [14]: Active
- Activity [15]: Active
- Activity [16]: Active
- Activity [17]: Active
- Activity [18]: Active
- Activity [19]: Active
- Activity [20]: Active
- Activity [21]: Active
- Activity [22]: Active
